# Experimental data: US20100298141A1, “SUBSTITUTED PYRIDINE N-OXIDE HERBICIDES” (E. I. DU PONT DE NEMOURS AND COMPANY, priority 2007, published 2010)
# Tests used:
# [1] = test system: morningglory; test: Test A pre-/postemergence greenhouse test; format: in vivo, Ipomoea spp.; conditions: for Plant response rating, Morningglory: 0 to 100 scale where 0 is no effect and 100 is complete control; for Morningglory plant response rating: 0 to 100 scale
# How it was run: (§1)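 Greenhouse herbicide screen, pre- and postemergence in parallel. Soil: loam plus sand. Formulation: non-phytotoxic solvent mix with surfactant. Postemergence stage: one to two leaves, 2–10 cm height. Evaluation: visual injury, compared with untreated controls, about 10 days after treatment.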
# [2] = test system: redroot pigweed; test: Test A pre-/postemergence greenhouse test; format: in vivo, Amaranthus retroflexus; conditions: for Plant response rating, Pigweed: 0 to 100 scale where 0 is no effect and 100 is complete control; for Pigweed plant response rating: 0 to 100 scale
# How it was run: as §1
# [3] = test system: corn; test: Test A pre-/postemergence greenhouse test; format: in vivo, Zea mays; conditions: for Plant response rating, Corn: 0 to 100 scale where 0 is no effect and 100 is complete control; for Corn plant response rating: 0 to 100 scale
# How it was run: as §1
# [4] = test system: Italian ryegrass; test: Test C pre-/postemergence test; format: in vivo, Lolium multiflorum; conditions: for Plant response rating, Ryegrass, Italian: 31 g ai/ha, scale 0 to 100 (0 no effect, 100 complete control)
# How it was run: (§2)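 Test chemicals were formulated with surfactant in a non-phytotoxic solvent and sprayed both on freshly planted seeds (preemergence) and on 1- to 4-leaf plants of 2–18 cm (postemergence). Flooded-paddy pots received compound directly into 3 cm of standing water, maintained for the test.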
# [5] = test system: wheat; test: Test C pre-/postemergence test; format: in vivo, Triticum aestivum; conditions: for Plant response rating, Wheat: 31 g ai/ha, scale 0 to 100 (0 no effect, 100 complete control)
# How it was run: as §2
# [6] = test system: wild oat; test: Test C pre-/postemergence test; format: in vivo, Avena fatua; conditions: for Plant response rating, Oat, Wild: 31 g ai/ha, scale 0 to 100 (0 no effect, 100 complete control)
# How it was run: as §2
# [7] = test system: bermudagrass; test: Test C pre-/postemergence test; format: in vivo, Cynodon dactylon; conditions: for Plant response rating, Bermudagrass: 31 g ai/ha
# How it was run: as §2
# [8] = test system: cocklebur; test: Test C pre-/postemergence test; format: in vivo, Xanthium strumarium; conditions: for Plant response rating, Cocklebur: 31 g ai/ha, scale 0 to 100 (0 no effect, 100 complete control)
# How it was run: as §2
# [9] = test system: corn; test: Test C pre-/postemergence test; format: in vivo, Zea mays
# How it was run: as §2
# [10] = test system: giant foxtail; test: Test C pre-/postemergence test; format: in vivo, Setaria faberii; conditions: for Plant response rating, Foxtail, Giant: 31 g ai/ha, scale 0 to 100 (0 no effect, 100 complete control)
# How it was run: as §2
# [11] = test system: johnsongrass; test: Test C pre-/postemergence test; format: in vivo, Sorghum halepense; conditions: for Plant response rating, Johnsongrass: 31 g ai/ha, scale 0 to 100 (0 no effect, 100 complete control)
# How it was run: as §2
# [12] = test system: kochia; test: Test C pre-/postemergence test; format: in vivo, Kochia scoparia; conditions: for Plant response rating, Kochia: 31 g ai/ha, scale 0 to 100 (0 no effect, 100 complete control)
# How it was run: as §2
# [13] = test system: morningglory; test: Test C pre-/postemergence test; format: in vivo, Ipomoea coccinea; conditions: for Plant response rating, Morningglory: 31 g ai/ha, scale 0 to 100 (0 no effect, 100 complete control)
# How it was run: as §2
# [14] = test system: eastern black nightshade; test: Test C pre-/postemergence test; format: in vivo, Solanum ptycanthum; conditions: for Plant response rating, Nightshade: 31 g ai/ha, scale 0 to 100 (0 no effect, 100 complete control)
# How it was run: as §2
# [15] = test system: yellow nutsedge; test: Test C pre-/postemergence test; format: in vivo, Cyperus esculentus; conditions: for Plant response rating, Nutsedge, Yellow: 31 g ai/ha, scale 0 to 100 (0 no effect, 100 complete control)
# How it was run: as §2
# [16] = test system: common (oilseed) sunflower; test: Test C pre-/postemergence test; format: in vivo, Helianthus annuus; conditions: for Plant response rating, Sunflower: 31 g ai/ha, scale 0 to 100 (0 no effect, 100 complete control)
# How it was run: as §2
# [17] = test system: rice; test: Test C flooded paddy test; format: in vivo, Oryza sativa; conditions: Flood
# How it was run: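 Greenhouse pots flooded to 3 cm above soil at time of treatment received compound via the water, which stayed at that level.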
# [18] = Postemergence, 500 g ai/ha, 0 is no effect, 100 is complete control
# [19] = Preemergence, 125 g ai/ha, 0 no effect, 100 complete control
# [20] = 62 g ai/ha, Preemergence, scale 0 to 100
# [21] = 125 g ai/ha, preemergence, scale 0 (no effect) to 100 (complete control)
# [22] = preemergence, 250 g ai/ha, scale 0 (no effect) to 100 (complete control)
# [23] = 62 g ai/ha, Preemergence, scale 0 to 100 (0 no effect, 100 complete control)
# [24] = Preemergence, scale 0 to 100 (0 no effect, 100 complete control)
# [25] = 62 g ai/ha, scale 0 to 100 (0 no effect, 100 complete control)
# [26] = 250 g ai/ha, scale 0 to 100, 0 no effect, 100 complete control, 13 to 15 days
smiles,measurement,setting,value
Cn1nc(C(F)(F)C(F)(F)F)c(C[S+]([O-])c2ccc(Cl)c[n+]2[O-])c1OCC(F)(F)F (centres unmarked) [Compound 92],"Plant response rating, Morningglory","[1]; Postemergence, 125 g ai/ha",70
same,Morningglory plant response rating,[1]; [18],100
same,Morningglory plant response rating,[1]; [19],100
same,"Plant response rating, Morningglory","[1]; Preemergence, 500 g ai/ha",100
same,"Plant response rating, Pigweed","[2]; Postemergence, 125 g ai/ha",50
same,Pigweed plant response rating,[2]; [18],100
same,Pigweed plant response rating,[2]; [19],100
same,"Plant response rating, Pigweed","[2]; Preemergence, 500 g ai/ha",100
same,"Plant response rating, Corn","[3]; Postemergence, 125 g ai/ha",70
same,Corn plant response rating,[3]; [18],80
same,Corn plant response rating,[3]; [19],60
same,"Plant response rating, Corn","[3]; Preemergence, 500 g ai/ha",90
same,"Ryegrass, Italian plant response rating",[4]; [20],80
same,"Ryegrass, Italian plant response rating",[4]; [21],100
same,"Plant response rating, Ryegrass, Italian",[4]; Preemergence,60
same,"Ryegrass, Italian plant response rating",[4]; [22],100
same,Wheat plant response rating,[5]; [20],65
same,Wheat plant response rating,[5]; [21],90
same,"Plant response rating, Wheat",[5]; Preemergence,35
same,Wheat plant response rating,[5]; [22],95
same,"Oat, Wild plant response rating",[6]; [20],85
same,"Oat, Wild plant response rating",[6]; [21],90
same,"Plant response rating, Oat, Wild",[6]; Preemergence,60
same,"Oat, Wild plant response rating",[6]; [22],100
same,Bermudagrass plant response rating,[7]; [23],100
same,Bermudagrass plant response rating,[7]; [21],100
same,"Plant response rating, Bermudagrass",[7]; [24],100
same,Bermudagrass plant response rating,[7]; [22],100
same,Cocklebur plant response rating,[8]; [20],0
same,Cocklebur plant response rating,[8]; [21],0
same,"Plant response rating, Cocklebur",[8]; Preemergence,0
same,Cocklebur plant response rating,[8]; [22],55
same,Corn plant response rating,[9]; [20],95
same,Corn plant response rating,[9]; [21],98
same,"Plant response rating, Corn","[9]; Preemergence, 31 g ai/ha, scale 0 to 100 (0 no effect, 100 complete control)",75
same,Corn plant response rating,[9]; [22],98
same,"Foxtail, Giant plant response rating",[10]; [20],100
same,"Foxtail, Giant plant response rating",[10]; [21],100
same,"Plant response rating, Foxtail, Giant",[10]; Preemergence,98
same,"Foxtail, Giant plant response rating",[10]; [22],100
same,Johnsongrass plant response rating,[11]; [20],98
same,Johnsongrass plant response rating,[11]; [21],100
same,"Plant response rating, Johnsongrass",[11]; Preemergence,80
same,Johnsongrass plant response rating,[11]; [22],100
same,Kochia plant response rating,[12]; [20],100
same,Kochia plant response rating,[12]; [21],100
same,"Plant response rating, Kochia",[12]; Preemergence,50
same,Kochia plant response rating,[12]; [22],100
same,Morningglory plant response rating,[13]; [20],80
same,Morningglory plant response rating,[13]; [21],85
same,"Plant response rating, Morningglory",[13]; Preemergence,0
same,Morningglory plant response rating,[13]; [22],100
same,Nightshade plant response rating,[14]; [20],80
same,Nightshade plant response rating,[14]; [21],100
same,"Plant response rating, Nightshade",[14]; Preemergence,60
same,Nightshade plant response rating,[14]; [22],100
same,"Nutsedge, Yellow plant response rating",[15]; [20],90
same,"Nutsedge, Yellow plant response rating",[15]; [21],90
same,"Plant response rating, Nutsedge, Yellow",[15]; Preemergence,90
same,"Nutsedge, Yellow plant response rating",[15]; [22],100
same,Sunflower plant response rating,[16]; [20],35
same,Sunflower plant response rating,[16]; [21],70
same,"Plant response rating, Sunflower",[16]; Preemergence,0
same,Sunflower plant response rating,[16]; [22],85
same,"Plant response rating, Rice",[17]; [25],30
same,"Plant response rating, Rice",[17]; [26],50
Cc1cc[n+]([O-])c(S(=O)(=O)Cc2c(C(F)(F)F)nn(C)c2OCC(F)F)c1 [Compound 94],"Plant response rating, Morningglory","[1]; Postemergence, 125 g ai/ha",50
same,Morningglory plant response rating,[1]; [18],60
same,Morningglory plant response rating,[1]; [19],50
same,"Plant response rating, Morningglory","[1]; Preemergence, 500 g ai/ha",100
same,"Plant response rating, Pigweed","[2]; Postemergence, 125 g ai/ha",60
same,Pigweed plant response rating,[2]; [18],80
same,Pigweed plant response rating,[2]; [19],100
same,"Plant response rating, Pigweed","[2]; Preemergence, 500 g ai/ha",100
same,"Plant response rating, Corn","[3]; Postemergence, 125 g ai/ha",40
same,Corn plant response rating,[3]; [18],80
same,Corn plant response rating,[3]; [19],20
same,"Plant response rating, Corn","[3]; Preemergence, 500 g ai/ha",70
same,"Ryegrass, Italian plant response rating",[4]; [20],70
same,"Ryegrass, Italian plant response rating",[4]; [21],90
same,"Plant response rating, Ryegrass, Italian",[4]; Preemergence,0
same,"Ryegrass, Italian plant response rating",[4]; [22],98
same,Wheat plant response rating,[5]; [20],60
same,Wheat plant response rating,[5]; [21],80
same,"Plant response rating, Wheat",[5]; Preemergence,30
same,Wheat plant response rating,[5]; [22],80
same,"Oat, Wild plant response rating",[6]; [20],65
same,"Oat, Wild plant response rating",[6]; [21],65
same,"Plant response rating, Oat, Wild",[6]; Preemergence,35
same,"Oat, Wild plant response rating",[6]; [22],98
same,Bermudagrass plant response rating,[7]; [23],100
same,Bermudagrass plant response rating,[7]; [21],100
same,"Plant response rating, Bermudagrass",[7]; [24],90
same,Bermudagrass plant response rating,[7]; [22],100
same,Cocklebur plant response rating,[8]; [20],0
same,Cocklebur plant response rating,[8]; [21],0
same,"Plant response rating, Cocklebur",[8]; Preemergence,0
same,Cocklebur plant response rating,[8]; [22],0
same,Corn plant response rating,[9]; [20],10
same,Corn plant response rating,[9]; [21],90
same,Corn plant response rating,[9]; [22],95
same,"Foxtail, Giant plant response rating",[10]; [20],95
same,"Foxtail, Giant plant response rating",[10]; [21],100
same,"Plant response rating, Foxtail, Giant",[10]; Preemergence,90
same,"Foxtail, Giant plant response rating",[10]; [22],100
same,Johnsongrass plant response rating,[11]; [20],95
same,Johnsongrass plant response rating,[11]; [21],100
same,"Plant response rating, Johnsongrass",[11]; Preemergence,85
same,Johnsongrass plant response rating,[11]; [22],100
same,Kochia plant response rating,[12]; [20],100
same,Kochia plant response rating,[12]; [21],100
same,"Plant response rating, Kochia",[12]; Preemergence,85
same,Kochia plant response rating,[12]; [22],100
same,Morningglory plant response rating,[13]; [20],90
same,Morningglory plant response rating,[13]; [21],98
same,"Plant response rating, Morningglory",[13]; Preemergence,30
same,Morningglory plant response rating,[13]; [22],100
same,Nightshade plant response rating,[14]; [20],55
same,Nightshade plant response rating,[14]; [21],100
same,"Plant response rating, Nightshade",[14]; Preemergence,50
same,Nightshade plant response rating,[14]; [22],100
same,"Nutsedge, Yellow plant response rating",[15]; [20],55
same,"Nutsedge, Yellow plant response rating",[15]; [21],60
same,"Plant response rating, Nutsedge, Yellow",[15]; Preemergence,0
same,"Nutsedge, Yellow plant response rating",[15]; [22],98
same,Sunflower plant response rating,[16]; [20],0
same,Sunflower plant response rating,[16]; [21],45
same,"Plant response rating, Sunflower",[16]; Preemergence,0
same,Sunflower plant response rating,[16]; [22],80
same,"Plant response rating, Rice",[17]; [25],0
same,"Plant response rating, Rice",[17]; [26],20
